Read-outs that look alike come from different tables or passages of the source. Marks after values point to notes of the source that are not given here.
Assay: logP determination by retention times (calibration with alkan-2-ones)
Conditions: for logP: HPLC, reversed-phase C 18, EEC Directive 79/831 Annex V.A8, method *: 40° C., 0.1% aqueous formic acid and acetonitrile, linear gradient 10% to 95% acetonitrile

Structure (SMILES)	chromatographic logP	other results
Cc1nc(C)c(-c2nc(Cl)ncc2Cl)s1 [2,5-Dichloro-4-(2,4-dimethyl-1,3-thiazol-5-yl)pyrimidine]		chromatographic logP (logP(HCOOH), HCOOH): 2.47
Cc1nc2c(s1)C(=O)CCC2 [2-Methyl-7-oxo-4,5,6,7-tetrahydrobenzothiazole]		chromatographic logP (logP(HCOOH), HCOOH): 1.08
CC(=O)c1cccc(Nc2nccc(-c3sc(C)nc3C)n2)c1 [Example 2, 1-(3-{[4-(2,4-dimethyl-1,3-thiazol-5-yl)pyrimidin-2-yl]amino}phenyl)ethanone]	2.14	
CC(=O)c1cccc(Nc2nccc(-c3sc(N)nc3C)n2)c1 [Example 4, 1-(3-{[4-(2-amino-4-methyl-1,3-thiazol-5-yl)pyrimidin-2-yl]amino}phenyl)ethanone]	1.47	
CC(=O)c1cccc(Nc2nccc(-c3sc(C4CCCCC4)nc3C)n2)c1 [Example 6, 1-(3-{[4-(2-cyclohexyl-4-methyl-1,3-thiazol-5-yl)pyrimidin-2-yl]amino}phenyl)ethanone]	4.11	
CC(=O)c1cccc(Nc2nccc(-c3sc(C(C)C)nc3C)n2)c1 [Example 10, 1-(3-{[4-(2-isopropyl-4-methyl-1,3-thiazol-5-yl)pyrimidin-2-yl]amino}phenyl)ethanone]	3.1	
CC(=O)c1cccc(Nc2nccc(-c3cnc(C)s3)n2)c1 [Example 11, 1-(3-{[4-(2-methyl-1,3-thiazol-5-yl)pyrimidin-2-yl]amino}phenyl)ethanone]	2.57	
CC(=O)c1cccc(Nc2nccc(-c3sc(N(C)C)nc3C(F)(F)F)n2)c1 [Example 23, 1-[3-({4-[2-(dimethylamine)-4-(trifluoromethyl)-1,3-thiazol-5-yl]pyrimidin-2-yl}amino)phenyl]ethanone]		logP: 1.91*
COCc1nc(C)c(-c2ccnc(Nc3cccc(C(C)=O)c3)n2)s1 [Example 24, 1-[3-({4-[2-(methoxymethyl)-4-methyl-1,3-thiazol-5-yl]pyrimidin-2-yl}amino)phenyl]ethanone]	2.38	
CC(=O)c1cccc(Nc2nccc(-c3sc(C)nc3C(F)(F)F)n2)c1 [Example 26, 1-[3-({4-[2-methyl-4-(trifluoromethyl)-1,3-thiazol-5-yl]pyrimidin-2-yl}amino)phenyl]ethanone]	3.02	
CNc1nc(C)c(-c2ccnc(Nc3cccc(C(C)=O)c3)n2)s1 [Example 27, 1-[3-({4-[4-methyl-2-(methylamine)-1,3-thiazol-5-yl]pyrimidin-2-yl}amino)phenyl]ethanone]		logP: 1.62*
CSc1nc(C)c(-c2ccnc(Nc3cccc(C(C)=O)c3)n2)s1 [Example 28, 1-[3-({4-[4-methyl-2-(methylthio)-1,3-thiazol-5-yl]pyrimidin-2-yl}amino)phenyl]ethanone]	2.99	
CC(=O)c1cccc(Nc2nccc(-c3sc(NCC4CCCO4)nc3C)n2)c1 (stereo not shown) [Example 39, 1-{3-[(4-{4-methyl-2-[(tetrahydrofuran-2-ylmethyl)amino]-1,3-thiazol-5-yl}pyrimidin-2-yl)amino]phenyl}ethanone]	1.82	
CSc1nc(C)c(-c2ccnc(Nc3ccc(N(C)C)c(Cl)c3)n2)s1 [Example 61, 2-chloro-N1,N1-dimethyl-N4-{4-[4-methyl-2-(methylthio)-1,3-thiazol-5-yl]pyrimidin-2-yl}benzene-1,4-diamine]	2.74	
Cc1nc(C2CC2)sc1-c1ccnc(Nc2ccc(N(C)C)c(Cl)c2)n1 [Example 63, 2-chloro-N4-[4-(2-cyclopropyl-4-methyl-1,3-thiazol-5-yl)pyrimidin-2-yl]-N1,N1-dimethylbenzene-1,4-diamine]	2.59	
Cc1nc(C(C)C)sc1-c1ccnc(Nc2ccc(N(C)C)c(Cl)c2)n1 [Example 64, 2-chloro-N4-[4-(2-isopropyl-4-methyl-1,3-thiazol-5-yl)pyrimidin-2-yl]-N1,N1-dimethylbenzene-1,4-diamine]	2.72	
COCc1nc(C)c(-c2ccnc(Nc3ccc(N(C)C)c(Cl)c3)n2)s1 [Example 65, 2-chloro-N4-{4-[2-(methoxymethyl)-4-methyl-1,3-thiazol-5-yl]pyrimidin-2-yl}-N1,N1-dimethylbenzene-1,4-diamine]	2.04	
COCCOC(=O)Nc1ccc(Nc2nccc(-c3sc(C4CC4)nc3C)n2)cc1 [Example 71, 2-methoxyethyl-(4-{[4-(2-cyclopropyl-4-methyl-1,3-thiazol-5-yl)pyrimidin-2-yl]amino}phenyl)carbamate]	2.51	
COCCOC(=O)Nc1ccc(Nc2nccc(-c3sc(C(C)C)nc3C)n2)cc1 [Example 74, 2-methoxyethyl-(4-{[4-(2-isopropyl-4-methyl-1,3-thiazol-5-yl)pyrimidin-2-yl]amino}phenyl)carbamate]	2.67	
Cc1nc2c(s1)-c1nc(Nc3cccc([N+](=O)[O-])c3)ncc1CC2 [Example 95, 2-Methyl-N-(3-nitrophenyl)-4,5-dihydro[1,3]thiazolo[4,5-h]quinazoline-8-amine]	2.79	chromatographic logP (logP(HCOOH), HCOOH): 2.79
COCc1nc(C)c(-c2ccnc(Nc3cccc(O)c3)n2)s1 [Example 101, 3-({4-[2-(methoxymethyl)-4-methyl-1,3-thiazol-5-yl]pyrimidin-2-yl}amino)phenol]	1.97	
Cc1nc(NC(C)(C)C)sc1-c1ccnc(Nc2cccc(O)c2)n1 [Example 102, 3-({4-[2-(tert-butylamine)-4-methyl-1,3-thiazol-5-yl]pyrimidin-2-yl}amino)phenol]		logP: 1.82*
Cc1nc(C(F)(F)F)c(-c2ccnc(Nc3cccc(O)c3)n2)s1 [Example 103, 3-({4-[2-methyl-4-(trifluoromethyl)-1,3-thiazol-5-yl]pyrimidin-2-yl}amino)phenol]	2.52	
Cc1nc2c(s1)-c1nc(Nc3cccc(O)c3)ncc1CC2 [Example 126, 3-[(2-methyl-4,5-dihydro[1,3]thiazole[4,5-h]quinazolin-8-yl)amino]phenol]		logP: 1.77*
COCC(C)Nc1nc(C)c(-c2ccnc(Nc3cccc(O)c3)n2)s1 (stereo not shown) [Example 129, 3-[(4-{2-[(2-methoxy-1-methylethyl)amino]-4-methyl-1,3-thiazol-5-yl}pyrimidin-2-yl)amino]phenol]	1.53	
Cc1nc(C)c(-c2ccnc(Nc3cccc(O)c3)n2)s1 [Example 141, 3-{[4-(2,4-dimethyl-1,3-thiazol-5-yl)pyrimidin-2-yl]amino}phenol]	1.84	
Cc1nc(C2CCCCC2)sc1-c1ccnc(Nc2cccc(C(=O)O)c2)n1 [Example 145, 3-{[4-(2-cyclohexyl-4-methyl-1,3-thiazol-5-yl)pyrimidin-2-yl]amino}benzoic acid]	3.27	
Cc1nc(C2CCCCC2)sc1-c1ccnc(Nc2cccc(O)c2)n1 [Example 146, 3-{[4-(2-cyclohexyl-4-methyl-1,3-thiazol-5-yl)pyrimidin-2-yl]amino}phenol]	3.33	
Cc1nc(C2CC2)sc1-c1ccnc(Nc2cccc(C(=O)O)c2)n1 [Example 147, 3-{[4-(2-cyclopropyl-4-methyl-1,3-thiazol-5-yl)pyrimidin-2-yl]amino}benzoic acid]	2.27	
Cc1nc(C2CC2)sc1-c1ccnc(Nc2cccc(O)c2)n1 [Example 148, 3-{[4-(2-cyclopropyl-4-methyl-1,3-thiazol-5-yl)pyrimidin-2-yl]amino}phenol]	2.24	
